Earlier results in patent US20100022659A1, “Methods and Compositions for the Treatment of CNS-Related Conditions” (priority 2004, published 2010).
Like-named read-outs stand apart in the source and are kept apart here.

Details: humans, cited from earlier work
[1] = MAO inhibitors/GAPDHais, Table 2

Compound	Human PK [1]	Human PK (NMDAr antagonists, Table 1)
C#CCN[C@@H]1CCc2ccccc21 [N-propargyl-1(R)-aminoindan/Rasageline, N-propargyl-1(R)-aminoindan]	1.8 h	–
Desmethyldeprenyl	3.8 to 9.5 h	–
CC(N)C12CC3CC(CC(C3)C1)C2 (stereo not shown) [Rimantadine, 1-(1-aminoethyl)adamantane]	–	25 h
CC12CC3CC(C)(C1)CC(N)(C3)C2 [Memantine, 1-amino-3,5-dimethyladamantane]	–	56 h
